Source: patent US12048682B2, “Combination of micheliolide derivatives or nanoparticles with ionizing radiation and checkpoint inhibitors for cancer therapy” (The University of Chicago, priority 2018, dated 2024)

Assays:
GL261 cells = test: In vitro cytotoxicity against glioma cells GL261 (MTS assay), with or without X-ray irradiation; assay type: cell-based, mouse
Experimental: GL261 cells were seeded onto 96-well plates at a density of 2000 cells/well and treated with various concentrations of the dimethylamino Michael adduct of MCL (dimethylamino micheliolide, […]) for 24 hours to allow for sufficient cellular uptake and conversion to MCL before irradiation. The cells were irradiated with varying amounts of X-ray irradiation and then incubated for an additional 24 hours. The culture medium was exchanged with fresh medium and further incubated for an additional 48 hours. The cell viability was then detected by (3-(4,5-dimethylthiazol-2-yl)-5-(3-carboxymethoxyphenyl)-2-(4-sulfophenyl)-2H-tetrazolium) (MTS) assay (Promega, Madison, Wisconsin, United States of America).

glioma GL261 tumor model [1] = test: In vivo antitumor activity, glioma GL261 tumor model on wildtype C57BL/6 mice (irradiation and PD-L1 antibody combination)
Experimental: The combination of DMAMCL, irradiation, and PD-L1 antibody was evaluated on the glioma GL261 tumor model on wildtype C57BL/6 mice. The treatment began 14 days after the inoculation of 2×10^6 GL261 cells. The mice were orally dosed with 50 mg/kg DMAMCL or PBS daily and irradiated with 2 Gy irradiation approximately 4 hrs after dosing, as applicable, for up to 12 days, starting when the tumors reached ˜150 mm^3-200 mm^3. One group of mice received two doses of 75 μg PD-L1 antibody on days 0 and 4. […] By the cessation of treatment, 3/5 tumors treated with this combination were barely palpable.

glioma GL261 tumor model [2] = test: In vivo antitumor activity, glioma GL261 tumor model on immunocompromised Rag2-/- C57BL/6 mice
Experimental: The combination of […] and irradiation was evaluated on the glioma GL261 tumor model on immunocompromised Rag2^-/- C57BL/6 mice. The mice were orally dosed with 50 mg/kg […] or PBS daily and irradiated with 4 Gy irradiation approximately 4 hrs after dosing, as applicable, for up to 7 days, starting when the tumors reached about […]. A Precision X-ray X-RAD 225 Image Guided Biologic Irradiator (Precision X-Ray Irradiation, North Branford, Connecticut, United States of America) was used for all animal studies. The instrument was set at 225 peak kilovoltage (kVp) and 13 milliampere (mA), with a 0.3 mm flat-board copper (Cu) filter installed before a 15-mm collimator. The irradiation was given in two successive fractions with incident angles of 0° and 180° for each mouse.

## CC1=C2CC[C@@](C)(O)[C@@H]2[C@H]2OC(=O)[C@@H](CN(C)C)[C@@H]2CC1 [DMAMCL, dimethylamino micheliolide]
GL261 cells; 1 μM DMAMCL and X-ray irradiation of 8 Gy
  cytotoxicity (cell viability): significant cytotoxicity
GL261 cells; 10 μM DMAMCL and X-ray irradiation of 8 Gy
  cytotoxicity (cell viability): significant cytotoxicity
GL261 cells; DMAMCL monotherapy, doses up to 10 μM, no irradiation
  toxicity (cell viability): little to no toxicity
Glioma GL261 tumor model [1]; DMAMCL 50 mg/kg oral daily plus 2 Gy irradiation plus 75 μg PD-L1 antibody on days 0 and 4, wildtype C57BL/6 mice
  tumor growth: controlled and regressed tumor growth immediately after treatment
Glioma GL261 tumor model [1]; DMAMCL 50 mg/kg oral daily plus 2 Gy irradiation, up to 12 days, wildtype C57BL/6 mice
  tumor growth: suppressed tumor growth and ultimately led to tumor regression
Glioma GL261 tumor model [1]; DMAMCL alone, 50 mg/kg oral daily up to 12 days, wildtype C57BL/6 mice
  tumor growth: no effect on tumor growth
Glioma GL261 tumor model [1]; DMAMCL plus 2 Gy irradiation plus PD-L1 antibody, wildtype C57BL/6 mice
  tumors barely palpable by the cessation of treatment: 3/5
Glioma GL261 tumor model [2]; DMAMCL 50 mg/kg oral daily plus 4 Gy irradiation about 4 hrs after dosing, up to 7 days
  tumor growth: successfully controlled tumor growth
Glioma GL261 tumor model [2]; DMAMCL alone, 50 mg/kg oral daily up to 7 days
  tumor growth: initially suppressed tumor growth
Glioma GL261 tumor model [2]; DMAMCL alone, 50 mg/kg oral daily up to 7 days, final tumor size
  tumor size compared to irradiation alone: not significantly different in size
